Reference: US10309966B2, “Personalized therapy of inflammation-associated cancer using methods of assessing the susceptibility of a subject to the treatment with EGFR inhibitors/antagonists” (Medizinische Universität Wien, priority 2014, dated 2019)

Assays:
[1] = system: IL-6 release by cultured Kupffer cells; assay: EGF-induced IL-6 release by cultured Kupffer cells (ELISA); format: cell-based, mouse
Method: (§1) Protocols for ELISA have been previously described (Natarajan, A. et al., 2007; Lichtenberger, B. M. et al., 2010; Sibilia, M. et al., 2000; Drobits, B. et al., 2012). ELISA for IL-6, IL17A, IL22, IL23 (eBioscience), amphiregulin (R&D Systems), CCL2, IL-1β and IL-1α (BD Biosciences-Pharmigen) were performed following the manufacturer's instructions. MTT assay (EZ4U, Biomedica) was performed to quantify the number of viable Kupffer cells in the wells. The cytokine value was normalized to the number of viable Kupffer cells.
Hepatocytes and Kupffer cells were isolated after liver perfusion according to previously published protocols (Smedsrod, B. et al., 1985) and either directly used for further analysis or cultured as follows. Hepatocytes were plated onto collagen pre-coated cell culture dishes and cultured in HepatoZyme-SFM (Gibco) supplemented with 2 mM glutamine and 1% penicillin-streptomycin (P/S). Hepatocytes were either treated with the indicated amounts of DEN for 24 hours or with 10 ng/ml TNFα (eBioscience) in the presence of cycloheximide (100 μg/ml, Sigma) for 12 hours to study the hepatoprotective role of EGFR. Kupffer cells were isolated and plated in RPMI 1640 with 10% FCS, 2 mM glutamine, 1% P/S for at least 24 hours followed by overnight starvation (in 0.5% FCS containing medium for cytokine induction; serum-free medium for signaling experiments). Kupffer cells were stimulated with IL-1β (10 ng/ml, eBioscience), EGF (10 ng/ml, Lonza), polylC (20 μg/ml, GE Healthcare), imiquimod (12 μg/ml, Invivogen) and LPS (10 ng/ml, Invivogen) for the time period indicated. […] Since the number of Kupffer cells which can be recovered from one mouse is very low, it was technically impossible to perform Western Blot analysis for all indicated signaling molecules on one single batch of Kupffer cells. Usually Kupffer cells from 2 livers of the same genotype were pooled together to obtain around 20-30 μg of protein lysate.

[2] = system: ulcerative colitis patients; details: EGF enemas; cited from earlier work
[3] = system: IL-6 secretion by isolated Kupffer cells; assay: IL-1β-induced IL-6 production/secretion by isolated Kupffer cells (ELISA, qRT-PCR); format: cell-based, mouse; details: for IL-1β-induced release of IL-6: EGFR-expressing Kupffer cells, 24 hours after IL-1β, inhibitor pre-incubation, FIG. 10C
Method: as §1, with “ELISA” for “Protocols for ELISA have been previously described (Natarajan, A. et al., 2007; Lichtenberger, B. M. et al., 2010; Sibilia, M. et al., 2000; Drobits, B. et al., 2012). ELISA”
(§2) Hepatocytes were plated onto collagen pre-coated cell culture dishes and cultured in HepatoZyme-SFM (Gibco) supplemented with 2 mM glutamine and 1% penicillin-streptomycin (P/S). Hepatocytes were either treated with the indicated amounts of DEN for 24 hours or with 10 ng/ml TNFα (eBioscience) in the presence of cycloheximide (100 μg/ml, Sigma) for 12 hours to study the hepatoprotective role of EGFR. […] Since the number of Kupffer cells which can be recovered from one mouse is very low, it was technically impossible to perform Western Blot analysis for all indicated signaling molecules on one single batch of Kupffer cells. Usually Kupffer cells from 2 livers of the same genotype were pooled together to obtain around 20-30 μg of protein lysate.

EGFR = EGFR phosphorylation in isolated Kupffer cells (Western blot); format: cell-based, mouse; details: EGFR expressing Kupffer cells; IL-1β as stimulus; FIGS. 10E, 10F
Method: as §2

[4] = system: DSS colitis in Adam17^ex/ex mice; details: exogenous supplementation; cited from earlier work
[5] = system: AR release by cultured Kupffer cells; assay: AR (amphiregulin) release into supernatant of IL-1β stimulated Kupffer cells (ELISA); format: cell-based, mouse; details: 24 hours after IL-1β stimulation in presence of inhibitor; FIG. 10B
Method: as §1
Hepatocytes and Kupffer cells were isolated after liver perfusion according to previously published protocols (Smedsrod, B. et al., 1985) and either directly used for further analysis or cultured as follows. Hepatocytes were plated onto collagen pre-coated cell culture dishes and cultured in HepatoZyme-SFM (Gibco) supplemented with 2 mM glutamine and 1% penicillin-streptomycin (P/S). Hepatocytes were either treated with the indicated amounts of DEN for 24 hours or with 10 ng/ml TNFα (eBioscience) in the presence of cycloheximide (100 μg/ml, Sigma) for 12 hours to study the hepatoprotective role of EGFR. Kupffer cells were isolated and plated in RPMI 1640 with 10% FCS, 2 mM glutamine, 1% P/S for at least 24 hours followed by overnight starvation (in 0.5% FCS containing medium for cytokine induction; serum-free medium for signaling experiments). […]

human HCC cells = details: xenograft models with human HCC cells; W. Sieghart, unpublished results; cited from earlier work
[6] = system: advanced stage HCC patients; details: cited from earlier work
[7] = system: patients with advanced non-small-cell lung cancer; details: meta-analysis; cited from earlier work

EGF: EGFR ligand epidermal growth factor (NSDSECPLSHDGYCLHDGVCMYIEALDKYACNCVVGYIGERCQYRDLKWWELR; UniProt P01133 971-1023, looked up)
restoration of IL-6 production in MyD88−/− Kupffer cells ([1]; EGF as stimulus, FIG. 10D): fully restore | induction of IL-6 release ([1]; EGFR expressing Kupffer cells, EGF as stimulus, FIGS. 10C, 10D): sufficient and equally as potent as IL-1β | disease remission [2]: induced disease remission

IL-1β: cytokine used to stimulate Kupffer cells
induction of IL-6 transcripts and IL-6 protein in the culture medium ([3]; Kupffer cells expressing EGFR, IL-1β as stimulus, FIGS. 8E, 8F): induced | induction of EGFR phosphorylation (EGFR): able to induce

TGFα: EGFR ligand transforming growth factor alpha, exogenous supplementation
rescue of colitis symptoms [4]: partial rescue

C[S+]([O-])c1ccc(-c2nc(-c3ccncc3)c(-c3ccc(F)cc3)[nH]2)cc1 (centres unmarked) [SB203580, reference compound]
IL-1β-induced release of IL-6 [3]: inhibited | EGF-induced IL-6 production ([1]; EGFR-positive liver macrophages, 24 hours after EGF, inhibitor pre-incubation, FIG. 10D): inhibited

CC(C)C[C@H](CC(=O)NO)C(=O)N[C@@H](Cc1ccc2ccccc2c1)C(=O)N[C@@H](C)C(=O)NCCN [TAPI-1, reference compound]
IL-1β-induced release of IL-6 [3]: blocked | AR release into the culture medium [5]: did not occur

C#Cc1cccc(Nc2ncnc3cc(OCCOC)c(OCCOC)cc23)c1 [erlotinib]
reduction of HCC burden (human HCC cells): ineffective | synergistic effect of combination therapy with sorafenib (human HCC cells): did not show any synergistic effect | effects in phase 2 trials (disease stabilization at 6 months) ([6]; HCC, phase 2): moderate effects | improvement in survival through addition of erlotinib ([6]; SEARCH trial, phase III, advanced stage HCC-patients): unable to show any improvement in survival | drug toxicity (diarrhea) [7]: increased drug toxicity in the form of diarrhea

COc1cc2ncnc(Nc3ccc(F)c(Cl)c3)c2cc1OCCCN1CCOCC1 [gefitinib]
clinical results in advanced stage HCC patients ([6]; advanced stage HCC): disappointing clinical results | drug toxicity (diarrhea) [7]: increased drug toxicity in the form of diarrhea
